Reference: patent US20210024507A1, “Compounds” (Step Pharma S.A.S., priority 2018, published 2021)

test system: human CTPS1; assay: RapidFire/MS-based enzyme selectivity assay, human CTPS1; assay type: biochemical; settings: calculated from the CTPS1 and CTPS2 IC50 values
Experimental: The enzyme inhibitory activities against each target isoform of interest may be determined for the compounds of the invention using an optimised RapidFire high-throughput mass spectrometry (RF/MS) assay format. RF/MS assays for both human CTPS1 and CTPS2 may be performed in assay buffer consisting of 50mM HEPES (Merck), 20mM MgCl2, 5mM KCI, 1mM DTT, 0.01% Tween-20, pH to 8.0 accordingly. Human full-length active C-terminal FLAG-His-tag CTPS1 (UniProtKB - P17812, CTPS[1-591]-[…]) may be obtained from Proteros biostructures GmbH. Human full length active C-terminal FLAG-His-Avi tagged CTPS2 (UniProtKB-Q9NRF8, CTPS2 [1-586]- […]) may be obtained from Harker Bio.
Human CTPS (1 or 2) protein may be prepared in lx assay buffer to the final working protein concentration required for the reaction. A 2uL volume per well of 2× CTPS (1 or 2) protein may be mixed with 40nL of compound using acoustic (ECHO) delivery and incubated for 10 minutes at 25° C. Each isoform enzymatic reaction may be subsequently initiated by addition of 2uL per well of a 2× substrate mix in assay buffer. For hCTPS1: ATP (0.3mM), UTP (0.2mM), GTP (0.07mM) and L-glutamine (0.1mM). For hCTPS2: ATP (0.1mM), UTP (0.04mM), GTP (0.03mM) and L-glutamine (0.1mM). Each mixture may be incubated for an appropriate amount of time per isoform within the determined linear phase of the reaction at 25° C. A 60uL volume of stop solution (1% formic acid with 0.5uM ^13C9-^15N3-CTP in H2O) may be added and the plate immediately heat-sealed and centrifuged for 10 minutes at 4,000rpm. Following centrifugation, plates may be loaded onto the Agilent RapidFire microfluidic solid phase extraction system coupled to an AP14000 triple quadrupole mass spectrometer (RF/MS) for analysis.
In all cases, the enzyme converts UTP to CTP. Highly specific and sensitive multiple reaction monitoring (MRM) MS methods may be optimised for the detection of the enzymatic reaction product, CTP, and the stable isotope labelled product standard ^13C9-^15N3-CTP. Readout for data analysis may be calculated as the ratio between the peak area of the product CTP and the internal standard ^13C9-^15N3-CTP. For data reporting, the following equation may be used:
[formula] (R=ratio/readout, P=product signal area, IS=internal standard signal area)
For each screening plate, the means of the negative (DMSO) and positive control values were used for the calculation of the respective assay window (S/B) and Z′ values. The median of the respective control values was used for calculation of percent inhibition according to the following equation:
[formula] (I=Inhibition, Rneg=median of negative control readout values, Rpos=median of positive control readout values, Rsample=sample readout value)
Percentage inhibition was then plotted against compound concentration, and the 50% inhibitory concentration (IC50) was determined from the resultant concentration-response curve.
Fold selectivity between CTPS1 and CTPS2 was subsequently calculated according to the following equation: […]

Row | Selectivity (fold selectivity between CTPS1 and CTPS2) | Compound
1 | ++ (>30-60 fold (++)) | CC(C)Oc1cncc(-c2ccc(NC(=O)Cc3ccnc(NS(=O)(=O)C4CC4)n3)cc2)n1 [P21, 2-(2-(cyclopropanesulfonamido)pyrimidin-4-yl)-N-(4-(6-isopropoxypyrazin-2-yl)phenyl)acetamide]
2 | +++ (>60 fold (+++)) | CCOc1cncc(-c2ccc(NC(=O)C(C)(C)c3ccnc(NS(=O)(=O)C4CC4)n3)nc2)n1 [P31, 2-(2-(cyclopropanesulfonamido)pyrimidin-4-yl)-N-(5-(6-ethoxypyrazin-2-yl)pyridin-2-yl)-2-methylpropanamide]
3 | + (2-30 fold (+)) | CCOc1cncc(-c2ccc(NC(=O)C(C)(C)c3ccnc(NS(=O)(=O)C4CC4)n3)c(C#N)c2)n1 [P34, N-(2-cyano-4-(6-ethoxypyrazin-2-yl)phenyl)-2-(2-(cyclopropanesulfonamido)pyrimidin-4-yl)-2-methylpropanamide]
4 | + (2-30 fold (+)) | CCOc1cncc(-c2ccc(NC(=O)C(C)(C)c3ccnc(NS(=O)(=O)C4CC4)n3)c(F)c2)n1 [P38, 2-(2-(cyclopropanesulfonamido)pyrimidin-4-yl)-N-(4-(6-ethoxypyrazin-2-yl)-2-fluorophenyl)-2-methylpropanamide]
5 | + (2-30 fold (+)) | CC(C)(C(=O)Nc1ccc(-c2cccnc2)cc1)c1ccnc(NS(=O)(=O)C2CC2)n1 [P59, 2-(2-(cyclopropanesulfonamido)pyrimidin-4-yl)-2-methyl-N-(4-(pyridin-3-yl)phenyl)propanamide]
6 | ++ (>30-60 fold (++)) | CCOc1cncc(-c2ccc(NC(=O)C(C)(C)c3ccnc(NS(=O)(=O)C4CC4)n3)cc2)n1 [P65, 2-(2-(cyclopropanesulfonamido)pyrimidin-4-yl)-N-(4-(6-ethoxypyrazin-2-yl)phenyl)-2-methylpropanamide]
7 | + (2-30 fold (+)) | CCOc1cncc(-c2ccc(NC(=O)C(C)(C)c3nc(NS(=O)(=O)C4CC4)ncc3C)cc2)n1 [P70, 2-(2-(cyclopropanesulfonamido)-5-methylpyrimidin-4-yl)-N-(4-(6-ethoxypyrazin-2-yl)phenyl)-2-methylpropanamide]
8 | +++ (>60 fold (+++)) | CCOc1cncc(-c2ccc(NC(=O)C3(c4ccnc(NS(=O)(=O)C5CC5)n4)CC3)cc2)n1 [P83, 1-(2-(cyclopropanesulfonamido)pyrimidin-4-yl)-N-(4-(6-ethoxypyrazin-2-yl)phenyl)cyclopropanecarboxamide]
9 | +++ (>60 fold (+++)) | CCOc1cncc(-c2ccc(C(=O)NCc3ccnc(NS(=O)(=O)C4CC4)n3)cc2)n1 [P118, N-((2-(cyclopropanesulfonamido)pyrimidin-4-yl)methyl)-4-(6-ethoxypyrazin-2-yl)benzamide]
10 | ++ (>30-60 fold (++)) | CC(C)(C(=O)Nc1ccc(-c2cncc(C3CC3)n2)cn1)c1ccnc(NS(=O)(=O)C2CC2)n1 [P125, 2-(2-(cyclopropanesulfonamido)pyrimidin-4-yl)-N-(5-(6-cyclopropylpyrazin-2-yl)pyridin-2-yl)-2-methylpropanamide]
11 | +++ (>60 fold (+++)) | CCOc1cncc(-c2ccc(NC(=O)C(F)(CC)c3ccnc(NS(C)(=O)=O)n3)nc2)n1 (stereo not shown) [P151, N-(5-(6-ethoxypyrazin-2-yl)pyridin-2-yl)-2-fluoro-2-(2-(methylsulfonamido)pyrimidin-4-yl)butanamide]
12 | + (2-30 fold (+)) | CCOc1cncc(-c2ccc(NC(=O)C(OC)c3ccnc(NS(=O)(=O)C4CC4)n3)cc2)n1 (stereo not shown) [P164, 2-(2-(cyclopropanesulfonamido)pyrimidin-4-yl)-N-(4-(6-ethoxypyrazin-2-yl)phenyl)-2-methoxyacetamide]
13 | +++ (>60 fold (+++)) | CCOc1cncc(-c2ccc(NC(=O)C(C)(C)c3cncc(NS(=O)(=O)C4CC4)n3)nc2)n1 [P195, 2-(6-(cyclopropanesulfonamido)pyrazin-2-yl)-N-(5-(6-ethoxypyrazin-2-yl)pyridin-2-yl)-2-methylpropanamide]
14 | +++ (>60 fold (+++)) | CCOc1cncc(-c2ccc(NC(=O)C(C)(C)c3cncc(NS(=O)(=O)C4CC4)n3)cc2)n1 [P196, 2-(6-(cyclopropanesulfonamido)pyrazin-2-yl)-N-(4-(6-ethoxypyrazin-2-yl)phenyl)-2-methylpropanamide]

The remaining lines, values behind:

Row | Compound | Selectivity (fold selectivity between CTPS1 and CTPS2)
15 | CC(C)Oc1cncc(-c2ccc(NC(=O)C(C)(C)c3ccnc(NS(=O)(=O)C4CC4)n3)c(F)c2)n1 [P39, 2-(2-(cyclopropanesulfonamido)pyrimidin-4-yl)-N-(2-fluoro-4-(6-isopropoxypyrazin-2-yl)phenyl)-2-methylpropanamide] | + (2-30 fold (+))
16 | CCOc1cncc(-c2ccc(NC(=O)C(C)(C)c3nc(NS(=O)(=O)C4CC4)ncc3F)cc2)n1 [P68, 2-(2-(cyclopropanesulfonamido)-5-fluoropyrimidin-4-yl)-N-(4-(6-ethoxypyrazin-2-yl)phenyl)-2-methylpropanamide] | ++ (>30-60 fold (++))
17 | CCOc1cncc(-c2ccc(NC(=O)C(C)(C)c3ccnc(NS(=O)(=O)CC)n3)cc2)n1 [P74, N-(4-(6-ethoxypyrazin-2-yl)phenyl)-2-(2-(ethylsulfonamido)pyrimidin-4-yl)-2-methylpropanamide] | ++ (>30-60 fold (++))
18 | CCOc1cncc(-c2ccc(NC(=O)C(C)(C)c3ccnc(NS(C)(=O)=O)n3)nc2)n1 [P76, N-(5-(6-ethoxypyrazin-2-yl)pyridin-2-yl)-2-methyl-2-(2-(methylsulfonamido)pyrimidin-4-yl)propanamide] | ++ (>30-60 fold (++))
19 | CCOc1cncc(-c2ccc(NC(=O)C3(c4ccnc(NS(=O)(=O)C5CC5)n4)CCOCC3)nc2)n1 [P115, 4-(2-(cyclopropanesulfonamido)pyrimidin-4-yl)-N-(5-(6-ethoxypyrazin-2-yl)pyridin-2-yl)tetrahydro-2H-pyran-4-carboxamide] | +++ (>60 fold (+++))
20 | CCOc1cncc(-c2ccc(NC(=O)C3(c4ccnc(NS(=O)(=O)C5CC5)n4)CCCC3)nc2)n1 [P136, 1-(2-(cyclopropanesulfonamido)pyrimidin-4-yl)-N-(5-(6-ethoxypyrazin-2-yl)pyridin-2-yl)cyclopentane-1-carboxamide] | +++ (>60 fold (+++))
21 | CCOc1cncc(-c2ccc(NC(=O)C3(c4ccnc(NS(=O)(=O)C5CC5)n4)CCOCC3)c(F)c2)n1 [P143, 4-(2-(cyclopropanesulfonamido)pyrimidin-4-yl)-N-(4-(6-ethoxypyrazin-2-yl)-2-fluorophenyl)tetrahydro-2H-pyran-4-carboxamide] | +++ (>60 fold (+++))
22 | CCOc1cncc(-c2ccc(NC(=O)C(CCOC)c3ccnc(NS(=O)(=O)C4CC4)n3)nc2)n1 (stereo not shown) [P145, 2-(2-(cyclopropanesulfonamido)pyrimidin-4-yl)-N-(5-(6-ethoxypyrazin-2-yl)pyridin-2-yl)-4-methoxybutanamide] | +++ (>60 fold (+++))
23 | CCOc1cncc(-c2ccc(NC(=O)C(CCOC)c3ccnc(NS(=O)(=O)C4CC4)n3)c(F)c2)n1 (stereo not shown) [P146, 2-(2-(cyclopropanesulfonamido)pyrimidin-4-yl)-N-(4-(6-ethoxypyrazin-2-yl)-2-fluorophenyl)-4-methoxybutanamide] | +++ (>60 fold (+++))
24 | CCOc1cncc(-c2ccc(NC(=O)C3(c4cncc(NS(=O)(=O)C5CC5)n4)CCOCC3)nc2)n1 [P197, 4-(6-(cyclopropanesulfonamido)pyrazin-2-yl)-N-(5-(6-ethoxypyrazin-2-yl)pyridin-2-yl)tetrahydro-2H-pyran-4-carboxamide] | +++ (>60 fold (+++))
25 | CC(C)Oc1cncc(-c2ccc(C(=O)NC(C)(C)c3cncc(NS(=O)(=O)C4CC4)n3)c(F)c2)n1 [P221, N-(2-(6-(cyclopropanesulfonamido)pyrazin-2-yl)propan-2-yl)-2-fluoro-4-(6-isopropoxypyrazin-2-yl)benzamide] | + (2-30 fold (+))
